This is an account of results in publication PMC6753110, “Fragment-based discovery of the first nonpeptidyl inhibitor of an S46 family peptidase” (Scientific Reports, 2019).

One assay addresses T1, PgDPP11 (Porphyromonas gingivalis, UniProt B2RID1).
T1 construct: signal peptide of DAP BIII (Pseudoxanthomonas mexicana WO24) (N, cleaved yes); made in house; host or cells: E. coli BL21 Gold(DE3), pET22b
Kind of assay: Inhibition of PgDPP11 enzymatic activity on Leu-Asp-MCA. The format is biochemical. The following applies: for Ki: Cheng-Prusoff equation; for remaining activity at 100 µM: inhibitor and synthetic substrate (Leu-Asp-MCA) 100 µM, 100% = activity without inhibitor, read-out: Residual activity (%). As to the method:
We evaluated the inhibitory effects of the 13 commercially available candidate compounds obtained by the in silico screening described above against the enzymatic activity of PgDPP11 on the synthetic substrate Leu-Asp-MCA (4-methylcoumaryl-7-amide) (Fig. 5). Each compound was first tested at a concentration of 100 μM.
Figure 5 Inhibitory effects of 13 candidate compounds obtained by multifilter in silico screening. […] Standard deviations were obtained from three independent experiments.
(§1) Thirteen of fifteen final candidate compounds from the in silico screening described above were purchased from Namiki Shoji Co., Ltd. (Tokyo, Japan). Half-maximal inhibitory concentration (IC50) values were determined by fitting to a sigmoidal curve (4-parameter logistic curve) using ImageJ[60] Competitive inhibition rates were measured using different concentrations of each inhibitor in a reaction buffer containing 50 mM sodium phosphate buffer (pH 8.0), 5 mM EDTA and 0.005% Tween 20 at 298 K for 20 min and using 100 µM Leu-Asp-MCA (4-methylcoumaryl-7-amide) as the substrate for DPP11s. For DPP7s, 100 µM Met-Leu-MCA was used as the substrate. The concentrations of PgDPP11, PgDPP7, SmDPP11 and SmDPP7 were 1, 10, 0.5 and 5 nM, respectively. The inhibitor concentrations were 1000, 500, 250, 125, 62.5, 31.3 and 15.6 µM. Standard deviations were calculated from three independent experiments. Fluorescence intensity was measured with excitation at 355 nm and emission at 460 nm using an Infinite 200 PRO microplate reader. Inhibition constants (Ki) were calculated using the Cheng-Prusoff equation[61].

The target in the next assay is SmDPP11 (Stenotrophomonas maltophilia, UniProt B4SNQ8). Briefly: Inhibition of SmDPP11 enzymatic activity on Leu-Asp-MCA. In kind it is biochemical. The following applies: for Ki / remaining activity at 100 µM: SmDPP11; for Ki: Cheng-Prusoff equation, 100 µM Leu-Asp-MCA; for remaining activity at 100 µM: inhibitor and synthetic substrate (Leu-Asp-MCA) 100 µM, 100% = activity without inhibitor, read-out: Residual activity (%).
Sequence of SmDPP11 (B4SNQ8 24-715 limits assumed): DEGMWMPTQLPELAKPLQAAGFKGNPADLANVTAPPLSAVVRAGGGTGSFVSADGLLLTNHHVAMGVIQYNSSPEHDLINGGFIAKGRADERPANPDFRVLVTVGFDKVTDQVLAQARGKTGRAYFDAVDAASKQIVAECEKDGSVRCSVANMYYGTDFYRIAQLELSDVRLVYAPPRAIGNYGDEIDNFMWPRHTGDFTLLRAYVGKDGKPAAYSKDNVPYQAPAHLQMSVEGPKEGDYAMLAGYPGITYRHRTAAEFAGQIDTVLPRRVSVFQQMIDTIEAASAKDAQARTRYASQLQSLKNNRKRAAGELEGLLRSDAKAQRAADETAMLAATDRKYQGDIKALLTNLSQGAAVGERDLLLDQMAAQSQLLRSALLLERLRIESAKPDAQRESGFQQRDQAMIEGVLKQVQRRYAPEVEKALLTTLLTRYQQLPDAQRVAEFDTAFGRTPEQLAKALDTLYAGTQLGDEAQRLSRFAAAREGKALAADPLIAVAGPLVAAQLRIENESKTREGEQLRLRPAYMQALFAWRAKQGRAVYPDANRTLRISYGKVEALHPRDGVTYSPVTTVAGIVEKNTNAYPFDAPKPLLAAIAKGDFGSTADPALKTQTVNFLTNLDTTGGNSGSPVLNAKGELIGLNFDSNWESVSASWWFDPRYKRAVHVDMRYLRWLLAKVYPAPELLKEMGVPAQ
Excerpt: (§2) To examine whether SH-5 is a universal inhibitor of S46 peptidases or is specific for PgDPP11, we evaluated the inhibitory effects of SH-5 against PgDPP7. In addition, the inhibitory effects of SH-5 against DPP7 and DPP11 from Stenotrophomonas maltophilia (SmDPP7 and SmDPP11, respectively) were also examined as another reference set of S46 peptidases in the same organism.
as §1

The target in a further assay is PgDPP7 (Porphyromonas gingivalis, UniProt Q7MWU6). Briefly: Inhibition of PgDPP7 enzymatic activity on Met-Leu-MCA. In kind it is biochemical. The following applies: for remaining activity at 100 µM: read-out: Residual activity (%).
Sequence of PgDPP7 (Q7MWU6 entry or part of it): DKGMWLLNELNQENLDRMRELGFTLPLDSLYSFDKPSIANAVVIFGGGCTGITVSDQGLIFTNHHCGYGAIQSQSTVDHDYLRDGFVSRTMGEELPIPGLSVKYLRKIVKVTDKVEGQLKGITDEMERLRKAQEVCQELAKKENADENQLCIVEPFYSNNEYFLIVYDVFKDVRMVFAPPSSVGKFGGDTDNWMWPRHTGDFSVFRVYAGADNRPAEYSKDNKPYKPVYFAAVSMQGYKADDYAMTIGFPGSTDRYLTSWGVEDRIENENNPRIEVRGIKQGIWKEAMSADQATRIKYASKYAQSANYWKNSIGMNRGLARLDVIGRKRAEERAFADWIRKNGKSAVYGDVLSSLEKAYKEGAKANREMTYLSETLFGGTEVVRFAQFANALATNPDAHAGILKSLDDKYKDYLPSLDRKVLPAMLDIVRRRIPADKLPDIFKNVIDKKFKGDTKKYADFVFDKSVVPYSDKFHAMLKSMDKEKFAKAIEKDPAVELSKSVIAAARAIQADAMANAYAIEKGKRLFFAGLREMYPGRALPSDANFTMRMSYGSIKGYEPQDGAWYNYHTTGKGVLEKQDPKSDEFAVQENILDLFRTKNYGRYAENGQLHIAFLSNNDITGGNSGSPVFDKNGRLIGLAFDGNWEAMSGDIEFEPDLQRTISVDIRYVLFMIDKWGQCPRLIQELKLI
Excerpt: as §2, §1

The target of a further assay is SmDPP7 (Stenotrophomonas maltophilia, UniProt B4SLK2). Kind of assay: Inhibition of SmDPP7 enzymatic activity on Met-Leu-MCA. In kind it is biochemical. The following applies: for remaining activity at 100 µM: read-out: Residual activity (%).
Sequence of SmDPP7 (B4SLK2 entry or part of it): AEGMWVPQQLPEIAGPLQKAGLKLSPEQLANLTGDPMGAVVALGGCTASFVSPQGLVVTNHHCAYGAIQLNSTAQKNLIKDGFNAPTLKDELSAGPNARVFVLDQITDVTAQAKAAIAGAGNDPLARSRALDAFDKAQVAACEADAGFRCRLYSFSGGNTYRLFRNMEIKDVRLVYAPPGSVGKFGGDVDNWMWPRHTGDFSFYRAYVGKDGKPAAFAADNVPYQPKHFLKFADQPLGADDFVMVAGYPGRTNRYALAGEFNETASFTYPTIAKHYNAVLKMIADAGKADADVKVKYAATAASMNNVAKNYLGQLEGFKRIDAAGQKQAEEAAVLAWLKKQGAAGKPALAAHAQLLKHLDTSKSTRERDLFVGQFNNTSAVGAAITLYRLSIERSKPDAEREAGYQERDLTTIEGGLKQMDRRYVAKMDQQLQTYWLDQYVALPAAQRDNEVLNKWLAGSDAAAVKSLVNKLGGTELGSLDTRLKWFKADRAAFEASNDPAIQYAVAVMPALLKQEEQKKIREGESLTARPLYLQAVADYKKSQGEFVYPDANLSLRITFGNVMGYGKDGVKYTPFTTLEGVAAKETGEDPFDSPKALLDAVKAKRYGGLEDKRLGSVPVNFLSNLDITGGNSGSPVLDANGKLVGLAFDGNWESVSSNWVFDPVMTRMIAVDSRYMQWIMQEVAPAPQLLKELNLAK
Excerpt: as §2, §1

A further assay has as its system P. gingivalis strain W83. Briefly: Antibacterial assay, growth of P. gingivalis (OD 600 nm). In kind it is cell-based. The following applies: Porphyromonas gingivalis; for IC50: strain W83, optical density at 600 nm, 48 h anaerobic, read-out: IC50, inhibition of growth of P. gingivalis. As to the method: (§3) The inhibitory effects of SH-5 and the lipophilic analog NPPB against growth of P. gingivalis strain W83 were evaluated by monitoring optical density at 600 nm (Fig. 6, closed squares). […] The maximal percent inhibition values for SH-5 and NPPB were 68% at 1 mM and 99% at 100 μM, respectively.
(§4) Antibacterial assays against P. gingivalis strain W83 and E. coli strain K12 were performed as previously described[62],[63]. P. gingivalis cells were cultured in anaerobic bacterium culture medium (ABCM, Eiken Chemical, Tokyo, Japan) containing 0.001% menadione under anaerobic conditions at 37 °C for 48 h. E. coli cells were grown in M9 medium with 1% glucose with shaking at 37 °C for 24 h. All compounds were dissolved in DMSO at stock concentrations of 100 mM. […] Growth of P. gingivalis and E. coli with compounds was determined as the optical density at 600 nm after incubation.

The test system of the next assay is E. coli strain K12. Kind of assay: Antibacterial assay, growth of E. coli (OD 600 nm). In kind it is cell-based. The following applies: at the concentrations used for the inhibition of P. gingivalis growth. As to the method:
as §3, §4

A further assay deals with ClC-ec1. More on the design: method as in PMID 23177200. The following applies: cited from earlier work.
A further assay relates to ClC-2. On the set-up: method as in ref [1] of Table S1. The following applies: Rat, UniProt P35525; ref [1] of Table S1; cited from earlier work.
In the next assay the test system is ClC-5. On the set-up: method as in ref [2] of Table S1. The following applies: Mouse, UniProt Q9WVD4; ref [2] of Table S1; cited from earlier work.
Another assay concerns ClC-6. More on the design: method as in ref [3] of Table S1. The following applies: Human, UniProt P51797; ref [3] of Table S1; cited from earlier work.
For a further assay, the system named is ClC-7. More on the design: method as in ref [4] of Table S1. The following applies: Human, UniProt P51798; ref [4] of Table S1; cited from earlier work.
Another assay has as its system ANO-1. More on the design: method as in ref [5] of Table S1. The following applies: Mouse, UniProt Q8BHY3; ref [5] of Table S1; cited from earlier work.
Another assay relates to ANO-2. On the set-up: method as in ref [6] of Table S1. The following applies: Mouse, UniProt Q8CFW1; ref [6] of Table S1; cited from earlier work.
The subject of another assay is BEST-1. On the set-up: method as in ref [7] of Table S1. The following applies: Mouse, UniProt O88870; ref [7] of Table S1; cited from earlier work.
A further assay deals with CFTR. On the set-up: method as in ref [8] of Table S1. The following applies: Xenopus, UniProt P26363; ref [8] of Table S1; cited from earlier work.

Where “and” joins values, the source holds several entries; their conditions need not be identical. Equal values may be shown once. Read-outs that look alike come from different tables or passages of the source.

T1 sequence (B2RID1 22-720): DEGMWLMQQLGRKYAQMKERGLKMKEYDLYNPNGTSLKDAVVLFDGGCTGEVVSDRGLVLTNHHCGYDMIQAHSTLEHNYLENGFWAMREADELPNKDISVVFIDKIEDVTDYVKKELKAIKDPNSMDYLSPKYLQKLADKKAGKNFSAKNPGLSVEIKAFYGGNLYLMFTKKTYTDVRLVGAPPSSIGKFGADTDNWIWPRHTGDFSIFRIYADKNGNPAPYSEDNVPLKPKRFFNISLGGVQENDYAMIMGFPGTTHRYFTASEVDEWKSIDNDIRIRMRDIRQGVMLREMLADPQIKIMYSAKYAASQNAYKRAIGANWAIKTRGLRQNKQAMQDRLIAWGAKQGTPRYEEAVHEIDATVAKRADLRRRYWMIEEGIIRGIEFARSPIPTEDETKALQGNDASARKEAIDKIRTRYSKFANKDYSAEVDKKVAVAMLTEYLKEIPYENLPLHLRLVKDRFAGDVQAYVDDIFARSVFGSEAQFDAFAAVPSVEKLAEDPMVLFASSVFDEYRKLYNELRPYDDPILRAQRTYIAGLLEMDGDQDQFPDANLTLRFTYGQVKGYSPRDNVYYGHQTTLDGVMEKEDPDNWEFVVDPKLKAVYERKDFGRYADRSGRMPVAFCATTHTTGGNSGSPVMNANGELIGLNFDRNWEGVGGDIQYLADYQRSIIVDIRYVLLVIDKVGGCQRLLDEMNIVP

For `NCCNc1ccc([N+](=O)[O-])cc1C(=O)O` [SH-5, 2-[(2-aminoethyl)amino]-5-nitrobenzoic acid], at PgDPP11, the “inhibitory effect against PgDPP11 (in words)” value was “significant inhibitory effects”. Also, the Ki was ~8.45 µM and 8.45 µM on PgDPP11 (PgDPP11, 100 µM Leu-Asp-MCA); 24.9 ± 0.5 µM at SmDPP11; 52.2 ± 3.3 µM at PgDPP7 (PgDPP7, Cheng-Prusoff equation, 100 µM Met-Leu-MCA); 36.6 ± 1.3 µM on SmDPP7 (SmDPP7, Cheng-Prusoff equation, 100 µM Met-Leu-MCA). In addition, the remaining activity at 100 µM at PgDPP11 (PgDPP11) was found to be 62.9 ± 0.1%; at SmDPP11, 48 ± 1.1%; on PgDPP7 (PgDPP7, inhibitor and synthetic substrate (Met-Leu-MCA) 100 µM, 100% = activity without inhibitor), 54.4 ± 0.7%; at SmDPP7 (SmDPP7, inhibitor and synthetic substrate (Met-Leu-MCA) 100 µM, 100% = activity without inhibitor), 72.8 ± 0.7%. The inhibition at 100 µM on PgDPP11 (compound tested at 100 μM, substrate Leu-Asp-MCA, read-out: inhibitory effect against PgDPP11) is over 30%. Moreover, the “ligand efficiency (LE)” value at PgDPP11 (roughly calculated as LE = 1.37pIC50/HA) is on record as 0.346. Further, the “inhibitory effect against SmDPP11 (in words)” value at SmDPP11 is “significant inhibitory effects”. Further, the “inhibitory effect against PgDPP7 (in words)” value against PgDPP7 was “significant inhibitory effects”. The “inhibitory effect against SmDPP7 (in words)” value against SmDPP7 was “significant inhibitory effects”. Also, the inhibition at 1000 µM with P. gingivalis strain W83 (P. gingivalis W83, at 1 mM, read-out: maximal percent inhibition of growth) stood at 68%. Moreover, the IC50 in the assay with P. gingivalis strain W83 came out at 687 µM. For the same compound, the “toxicity toward E. coli (growth)” value in the assay on E. coli strain K12 was “not toxic”.

For `NC(=O)c1ccc(SCC(=O)O)c([N+](=O)[O-])c1` [SH-5_3, 2-(4-carbamoyl-2-nitrophenyl)sulfanylacetic acid], the “inhibitory effect against PgDPP11 (in words)” value against PgDPP11 is “significant but relatively weak inhibitory effect”. For the same compound, the IC50 against PgDPP11 (PgDPP11, dose-response 15.6-1000 μM, 100 µM Leu-Asp-MCA) is about 1070 µM.

For `O=C(O)c1cc([N+](=O)[O-])ccc1NCCCc1ccccc1` [NPPB, 5-nitro-2-(3-phenylpropylamino)benzoic acid], the “inhibitory effect against PgDPP11 (in words)” value against PgDPP11 is “significant inhibitory effects”. Also, on PgDPP11 (PgDPP11, 100 µM Leu-Asp-MCA), the Ki is ~15 µM and 15 µM. Further, the remaining activity at 100 µM at PgDPP11 (PgDPP11) stood at 70.3 ± 0.7%. On SmDPP11, the “inhibitory effect against SmDPP11 (in words)” value is “significant inhibitory effects”, the Ki was 84.8 ± 3.1 µM and the remaining activity at 100 µM worked out at 67.7 ± 0.6%. Also, on PgDPP7, the “inhibitory effect against PgDPP7 (in words)” value is “inactive” and the remaining activity at 100 µM stood at 159 ± 5%. Further, on SmDPP7, the “inhibitory effect against SmDPP7 (in words)” value is “inactive” and the remaining activity at 100 µM was determined as 119 ± 0.3%. The inhibition at 100 µM in the assay with P. gingivalis strain W83 (P. gingivalis W83, at 100 μM, read-out: maximal percent inhibition of growth) came to 99%. Also, the IC50 in the assay with P. gingivalis strain W83 stood at 6 µM. Further, in the assay with E. coli strain K12, the “toxicity toward E. coli (growth)” value was “not toxic”. Besides, the “inhibition of ClC-ec1 protein” value in the assay on ClC-ec1 is listed as “not be inhibited”. Also, the “inhibition of ClC-2” value in the assay on ClC-2 is on record as “inhibited”. In addition, the “inhibition of ClC-5” value in the assay on ClC-5 is given as “inhibited”. Besides, the “inhibition of ClC-6” value in the assay on ClC-6 is given as “inhibited”. In addition, the “inhibition of ClC-7” value in the assay on ClC-7 is on record as “inhibited”. Besides, in the assay with ANO-1, the “inhibition of ANO-1” value was “inhibited”. Also, in the assay on ANO-2, the “inhibition of ANO-2” value is “inhibited”. The “inhibition of BEST-1” value in the assay on BEST-1 is “inhibited”. Besides, the “inhibition of CFTR” value in the assay on CFTR was “inhibited”.

As a reminder, the Ki is a measure of affinity in units of concentration, obtained from inhibition or displacement. The IC50 is the point on the concentration scale where inhibition reaches its midpoint.
